In patent US10568879B2 (GALAPAGOS NV, priority 2015, dated 2020):

Molecular target: T1, GPR84 (Homo sapiens, UniProt Q9NQS5)
T1 construct: expressed in transfected cells
Assay: GPR84 [35S]GTPγS binding assay
Format: biochemical
Settings: 3,3′-diindolylmethane at EC80; membranes from stable cell line over expressing GPR84
Protocol: The following assay can be used for determination of GPR84 activation. The [^35S]GTPγS binding assay measures the level of G protein activation following agonist occupation of a GPCR, by determining the binding of the non-hydrolysable analog [^35S]GTPγS to Gα subunits.
The assay is performed in a 96-well plate where the following reagents are added. First 50 μL compound is added into the assay plate, followed by addition of 20 μL 3,3′-diindolylmethane at EC80 concentration (concentration which gives 80% of the activity of GPR84). Then, 30 μL of a mixture consisting of membranes-GTPγS-SpA beads is added [mixture consists of 20 μg/well membranes derived from stable cell line over expressing GPR84 (membranes are pre-incubated with 0.1 μM GDP for 15 min at 4° C.), 0.1 nM [^35S]GTPγS (Perkin Elmer, NEG030) and 0.5 mg/well PVT-WGA SpA beads (Perkin Elmer, RPNQ0001)]. All components are diluted in assay buffer containing 20 mM Tris pH 7.5; 5 mM MgCl2; 250 mM NaCl; 0.05% BSA; 75 μg/mL saponin. After an incubation of 90 min at room temperature, 20 μL CsCl2 0.8 M (MP Biomedicals, 02150589) is added, followed by centrifugation at 2000 rpm during 20 min. Plates are read on a topcount reader (perkin elmer) immediately after centrifugation (readout time, 1 min/well).

T1 sequence (Q9NQS5 whole entry): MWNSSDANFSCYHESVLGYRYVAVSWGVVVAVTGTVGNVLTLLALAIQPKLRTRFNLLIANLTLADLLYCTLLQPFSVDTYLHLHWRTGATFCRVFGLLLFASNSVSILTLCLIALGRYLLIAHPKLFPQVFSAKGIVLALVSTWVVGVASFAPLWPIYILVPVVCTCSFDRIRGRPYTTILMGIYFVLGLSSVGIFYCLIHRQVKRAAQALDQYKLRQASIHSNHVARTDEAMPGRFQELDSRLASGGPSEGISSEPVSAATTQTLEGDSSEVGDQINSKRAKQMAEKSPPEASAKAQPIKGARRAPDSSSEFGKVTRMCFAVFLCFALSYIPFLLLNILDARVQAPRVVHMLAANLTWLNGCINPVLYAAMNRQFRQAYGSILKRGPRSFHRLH

Structure (SMILES) | IC50
Cc1c2n(c(OC[C@@H]3COCCO3)cc1=O)CCc1cc(N(C)C(=O)C3CC3)ccc1-2 [Compound 73, N-[4-[[(2S)-1,4-dioxan-2-yl]methoxy]-1-methyl-2-oxo-6,7-dihydrobenzo[a]quinolizin-9-yl]-N-methyl-cyclopropanecarboxamide] | 100 to 500 nM
Cc1c2n(c(OC[C@@H]3COCCO3)cc1=O)CCc1cc(C3=CCN(C(=O)OC(C)(C)C)CC3)ccc1-2 [Compound 74, tert-butyl 4-[4-[[(2S)-1,4-dioxan-2-yl]methoxy]-1-methyl-2-oxo-6,7-dihydrobenzo[a]qunolizin-9-yl]-3,6-dihydro-2H-pyridine-1-carboxylate] | 0.01 to 100 nM
Cc1c2n(c(OC[C@@H]3COCCO3)cc1=O)CCc1cc(C3CCN(C(=O)OC(C)(C)C)CC3)ccc1-2 [Compound 75, tert-butyl 4-[4-[[(2S)-1,4-dioxan-2-yl]methoxy]-1-methyl-2-oxo-6,7-dihydrobenzo[a]quinolizin-9-yl]piperidine-1-carboxylate] | 0.01 to 100 nM
Cc1c2n(c(OC[C@@H]3COCCO3)cc1=O)CCc1cc(C(=O)NC3CC3)ccc1-2 [Compound 84, N-cyclopropyl-4-[[(2S)-1,4-dioxan-2-yl]methoxy]-1-methyl-2-oxo-6,7-dihydrobenzo[a]quinolizine-9-carboxamide] | > 1000 nM
Cc1c2n(c(OC[C@@H]3COCCO3)cc1=O)CCc1cc(O)ccc1-2 [Compound 85, 4-[[(2S)-1,4-dioxan-2-yl]methoxy]-9-hydroxy-1-methyl-6,7-dihydrobenzo[a]quinolizin-2-one] | 100 to 500 nM
Cc1c2n(c(OC[C@@H]3COCCO3)cc1=O)CCc1cc(N3CC4(COC4)C3)ccc1-2 [Compound 87, 4-[[(2S)-1,4-dioxan-2-yl]methoxy]-1-methyl-9-(6-oxa-2-azaspiro[3.3]heptan-2-yl)-6,7-dihydrobenzo[a]quinolizin-2-one] | 500 to 1000 nM
Cc1c2n(c(OC[C@@H]3COCCO3)cc1=O)CCc1cc(C(=O)N(C)C3CC3)ccc1-2 [Compound 88, N-cyclopropyl-4-[[(2)S-1,4-dioxan-2-yl]methoxy]-N,1-dimethyl-2-oxo-6,7-dihydrobenzo[a]quinolizine-9-carboxamide] | > 1000 nM
COc1ccc2c(c1)CCn1c(OC[C@@H]3COCCO3)cc(=O)c(C)c1-2 [Compound 89, 4-[[(2S)-1,4-dioxan-2-yl]methoxy]-9-methoxy-1-methyl-6,7-dihydrobenzo[a]quinolizin-2-one] | 0.01 to 100 nM
Cc1c2n(c(OC[C@@H]3COCCO3)cc1=O)CCc1cc(N3CC(C(C)(C)O)C3)ccc1-2 [Compound 92, 4-[[(2S)-1,4-dioxan-2-yl]methoxy]-9-[3-(1-hydroxy-1-methyl-ethyl)azetidin-1-yl]-1-methyl-6,7-dihydrobenzo[a]quinolizin-2-one] | 100 to 500 nM
Cc1c2n(c(OC[C@@H]3COCCO3)cc1=O)CCc1cc(N3CC(S(C)(=O)=O)C3)ccc1-2 [Compound 94, 4-[[(2S)-1,4-dioxan-2-yl]methoxy]-1-methyl-9-(3-methylsulfonylazetidin-1-yl)-6,7-dihydrobenzo[a]quinolizin-2-one] | 500 to 1000 nM
Cc1c2n(c(OC[C@@H]3COCCO3)cc1=O)CCc1cc(N3CC(C)(C)C3)ccc1-2 [Compound 96, 9-(3,3-dimethylazetidin-1-yl)-4-[[(2S)-1,4-dioxan-2-yl]methoxy]-1-methyl-6,7-dihydrobenzo[a]quinolizin-2-one] | 0.01 to 100 nM
COC(=O)C1CN(c2ccc3c(c2)CCn2c(OC[C@@H]4COCCO4)cc(=O)c(C)c2-3)C1 [Compound 97] | 100 to 500 nM
Cc1c2n(c(OC[C@@H]3COCCO3)cc1=O)CCc1cc(-c3cccnc3)ccc1-2 [Compound 98, 4-[[(2S)-1,4-dioxan-2-yl]methoxy]-1-methyl-9-(3-pyridyl)-6,7-dihydrobenzo[a]quinolizin-2-one] | 100 to 500 nM
Cc1c2n(c(OC[C@@H]3COCCO3)cc1=O)CCc1cc(-c3cccc(F)c3)ccc1-2 [Compound 99, 4-[[(2S)-1,4-dioxan-2-yl]methoxy]-9-(3-fluorophenyl)-1-methyl-6,7-dihydrobenzo[a]quinolizin-2-one] | 0.01 to 100 nM
Cc1c2n(c(OC[C@@H]3COCCO3)cc1=O)CCc1cc(-c3ccncc3)ccc1-2 [Compound 100, 4-[[(2S)-1,4-dioxan-2-yl]methoxy]-1-methyl-9-(4-pyridyl)-6,7-dihydrobenzo[a]quinolizin-2-one] | 0.01 to 100 nM
Cc1c2n(c(OC[C@@H]3COCCO3)cc1=O)CCc1cc(-c3ccccn3)ccc1-2 [Compound 101, 4-[[(2S)-1,4-dioxan-2-yl]methoxy]-1-methyl-9-(2-pyridyl)-6,7-dihydrobenzo[a]quinolizin-2-one] | 0.01 to 100 nM
Cc1cccnc1-c1ccc2c(c1)CCn1c(OC[C@@H]3COCCO3)cc(=O)c(C)c1-2 [Compound 102, 4-[[(2S)-1,4-dioxan-2-yl]methoxy]-1-methyl-9-(3-methyl-2-pyridyl)-6,7-dihydrobenzo[a]quinolizin-2-one] | 0.01 to 100 nM
Cc1ccnc(-c2ccc3c(c2)CCn2c(OC[C@@H]4COCCO4)cc(=O)c(C)c2-3)c1 [Compound 103, 4-[[(2S)-1,4-dioxan-2-yl]methoxy]-1-methyl-9-(4-methyl-2-pyridyl)-6,7-dihydrobenzo[a]quinolizin-2-one] | 0.01 to 100 nM
Cc1c2n(c(OC[C@@H]3COCCO3)cc1=O)CCc1cc(OC3CN(C(=O)OC(C)(C)C)C3)ccc1-2 [Compound 104, tert-butyl 3-[[4-[[(2S)-1,4-dioxan-2-yl]methoxy]-1-methyl-2-oxo-6,7-dihydrobenzo[a]quinolizin-9-yl]oxy]azetidine-1-carboxylate] | 0.01 to 100 nM
[2H]C(Oc1ccc2c(c1)CCn1c(OC[C@@H]3COCCO3)c([2H])c(=O)c(C)c1-2)=C(F)F [Compound 105, 3-deuterio-9-(1-deuterio-2,2-difluoro-vinyloxy)-4-[[(2S)-1,4-dioxan-2-yl]methoxy]-1-methyl-6,7-dihydrobenzo[a]quinolizin-2-one] | 0.01 to 100 nM

The remaining lines, values ahead:

IC50 | Structure (SMILES)
0.01 to 100 nM | [2H]C([2H])(Oc1ccc2c(c1)CCn1c(OC[C@@H]3COCCO3)cc(=O)c(C)c1-2)C(F)(F)F [Compound 106, 9-(1,1-dideuterio-2,2,2-trifluoro-ethoxy)-4-[[(2S)-1,4-dioxan-2-yl]methoxy]-1-methyl-6,7-dihydrobenzo[a]quinolizin-2-one]
100 to 500 nM | Cc1c2n(c(OCC3CCO3)cc1=O)CCc1cc(OCc3ccccc3)ccc1-2 (stereo not shown) [Compound 107, 9-benzyloxy-1-methyl-4-(oxetan-2-ylmethoxy)-6,7-dihydrobenzo[a]quinolizin-2-one]
0.01 to 100 nM | Cc1c2n(c(OC[C@@H]3CCCO3)cc1=O)CCc1cc(OCc3ccccc3)ccc1-2 [Compound 108, 9-benzyloxy-1-methyl-4-[[(2S)-tetrahydrofuran-2-yl]methoxy]-6,7-dihydrobenzo[a]quinolizin-2-one]
0.01 to 100 nM | Cc1c2n(c(OCC3CCCCO3)cc1=O)CCc1cc(OCc3ccccc3)ccc1-2 (stereo not shown) [Compound 109, 9-benzyloxy-1-methyl-4-(tetrahydropyran-2-ylmethoxy)-6,7-dihydrobenzo[a]quinolizin-2-one]
0.01 to 100 nM | COC1CN(c2ccc3c(c2)CCn2c(OC[C@@H]4COCCO4)cc(=O)c(C)c2-3)C1 [Compound 110, 4-[[(2S)-1,4-dioxan-2-yl]methoxy]-9-(3-methoxyazetidin-1-yl)-1-methyl-6,7-dihydrobenzo[a]quinolizin-2-one]
0.01 to 100 nM | COC1CCN(c2ccc3c(c2)CCn2c(OC[C@@H]4COCCO4)cc(=O)c(C)c2-3)CC1 [Compound 111, 4-[[(2S)-1,4-dioxan-2-yl]methoxy]-9-(4-methoxy-1-piperidyl)-1-methyl-6,7-dihydrobenzo[a]quinolizin-2-one]
0.01 to 100 nM | Cc1c2n(c(OC[C@@H]3COCCO3)cc1=O)CCc1cc(N3CCC(C(=O)N4CCCCC4)CC3)ccc1-2 [Compound 112, 4-[[(2S)-1,4-dioxan-2-yl]methoxy]-1-methyl-9-[4-(piperidine-1-carbonyl)-1-piperidyl]-6,7-dihydrobenzo[a]quinolizin-2-one]
0.01 to 100 nM | Cc1c2n(c(OC[C@@H]3COCCO3)cc1=O)CCc1cc(N3CCC(c4ccccc4)CC3)ccc1-2 [Compound 113, 4-[[(2S)-1,4-dioxan-2-yl]methoxy]-1-methyl-9-(4-phenyl-1-piperidyl)-6,7-dihydrobenzo[a]quinolizin-2-one]
0.01 to 100 nM | Cc1c2n(c(OC[C@@H]3COCCO3)cc1=O)CCc1cc(N3CCCCC3)ccc1-2 [Compound 115, 4-[[(2S)-1,4-dioxan-2-yl]methoxy]-1-methyl-9-(1-piperidyl)-6,7-dihydrobenzo[a]quinolizin-2-one]
0.01 to 100 nM | Cc1c2n(c(OC[C@@H]3COCCO3)cc1=O)CCc1cc(N3CCCC(C)C3)ccc1-2 (stereo partly drawn) [Compound 116, 4-[[(2S)-1,4-dioxan-2-yl]methoxy]-1-methyl-9-(3-methyl-1-piperidyl)-6,7-dihydrobenzo[a]quinolizin-2-one]
0.01 to 100 nM | Cc1c2n(c(OC[C@@H]3COCCO3)cc1=O)CCc1cc(N3CCC(c4ccc(F)cc4)CC3)ccc1-2 [Compound 117, 4-[[(2S)-1,4-dioxan-2-yl]methoxy]-9-[4-(4-fluorophenyl)-1-piperidyl]-1-methyl-6,7-dihydrobenzo[a]quinolizin-2-one]
